In DBAASP:
Values after ≈ are worked out from the molar mass of the structure shown.

How the values were obtained:
Test in all cases: ≥ marks a high value that may be exact or a test limit, other limits are often not marked, values filed in µg/mL are converted to µM
Escherichia coli K-12 = test system: Escherichia coli K-12
Staphylococcus aureus = test system: Staphylococcus aureus
[1] = test system: Staphylococcus aureus USA 300
[2] = test system: Bacillus subtilis ATCC 6633
[3] = test system: Staphylococcus aureus ATCC 6538
[4] = test system: Candida albicans ATCC 90028
[5] = test system: Escherichia coli ATCC 8739
[6] = test system: Staphylococcus aureus ATCC 43300
Staphylococcus xylosus = test system: Staphylococcus xylosus
[7] = test system: Escherichia coli DH5alpha
[8] = test system: Micrococcus luteus ATCC 9341
[9] = test system: Pseudomonas aeruginosa ATCC 27853
[10] = test system: Staphylococcus aureus ATCC 6538P
[11] = test system: Enterococcus faecalis ATCC 29212
[12] = test system: Salmonella enterica subsp. enterica serovar Typhimurium C77-31
[13] = test system: Escherichia coli ATCC 25922
[14] = test system: Salmonella enterica subsp. enterica serovar Pullorum C79-13
[15] = test system: Staphylococcus aureus ATCC 29213
[16] = test system: Staphylococcus epidermidis ATCC 12228
[17] = test system: Bacillus subtilis CMCC 63501

Question: Which results are given for CC[C@H](C)[C@H](NC(=O)[C@H](CC(C)C)NC(=O)[C@@H]1CCCN1C(=O)[C@H](Cc1ccccc1)NC(=O)[C@H](CC(C)C)NC(=O)[C@@H](N)Cc1ccccc1)C(=O)N[C@H](C(=O)N[C@@H](CO)C(=O)N[C@@H](Cc1ccccc1)C(=O)N[C@@H](CC(C)C)C(=O)N[C@@H](CO)C(=O)N[C@@H](CCCCN)C(=O)N[C@H](C(=O)N[C@@H](CC(C)C)C(=O)O)C(C)C)[C@@H](C)O [FLFPLITSFLSKVL]?
Answer: MIC (Escherichia coli K-12): ≥ 100 µM; MIC (Staphylococcus aureus): 130 µM (≈ 211 µg/mL); MIC [1]: ≥ 50 µM

Question: CC[C@H](C)[C@H](NC(=O)[C@H](CCCCN)NC(=O)[C@H](CCC(N)=O)NC(=O)[C@@H](NC(=O)[C@@H](NC(=O)[C@H](CCCCN)NC(=O)[C@H](CCCCN)NC(=O)[C@H](Cc1ccccc1)NC(=O)[C@H](CCC(=O)O)NC(=O)CN)[C@@H](C)CC)C(C)C)C(=O)N[C@@H](CCCCN)C(=O)N[C@@H](CC(=O)O)C(=O)N[C@@H](Cc1ccccc1)C(=O)N[C@@H](CC(C)C)C(=O)N[C@@H](CCCCN)C(=O)N[C@@H](CC(N)=O)C(=O)N[C@@H](CC(C)C)C(=O)N[C@H](C(N)=O)C(C)C [GEFKKIVQKIKDFLKNLV] was tested. Which MIC (Escherichia coli K-12) did it give?
Answer: ≥ 60 µM

Question: What about the MIC [1] of the same compound?
Answer: ≥ 120 µM

Question: What does the source list for CC[C@H](C)[C@H](NC(=O)CN)C(=O)N[C@@H](CC(C)C)C(=O)NCC(=O)N[C@H](C(=O)N[C@H](C(=O)N[C@@H](Cc1ccccc1)C(=O)N[C@@H](CCCCN)C(=O)N[C@@H](C)C(=O)NCC(=O)N[C@@H](CCCCN)C(=O)NCC(=O)N[C@H](C(=O)N[C@H](C(=O)N[C@H]1CSSC[C@@H](C(=O)O)NC(=O)[C@H](CC(C)C)NC(=O)CNC(=O)[C@H]([C@@H](C)O)NC(=O)[C@H](CC(C)C)NC(=O)CNC1=O)C(C)C)[C@@H](C)CC)C(C)C)[C@@H](C)O [GILGTVFKAGKGIVCGLTGLC]?
Answer: MIC [2]: 12.5 µM (≈ 25.1 µg/mL); MIC [3]: 3.1 µM (≈ 6.22 µg/mL); MIC [4]: ≥ 50 µM; MIC [5]: ≥ 50 µM; MIC [6]: 12.5 µM (≈ 25.1 µg/mL)

Question: For CC(C)C[C@H](NC(=O)CN)C(=O)N[C@@H](CCCCN)C(=O)N[C@@H](CCCCN)C(=O)N[C@@H](CC(C)C)C(=O)N[C@@H](CC(C)C)C(=O)NCC(=O)N[C@@H](CCCCN)C(=O)N[C@@H](CC(C)C)C(=O)N[C@@H](CC(C)C)C(=O)N[C@@H](CCCCN)C(=O)N[C@@H](CCCCN)C(=O)N[C@@H](CC(C)C)C(=O)NCC(=O)N[C@@H](CCCCN)C(=O)N[C@@H](CC(C)C)C(=O)N[C@@H](CC(C)C)C(=O)N[C@@H](CC(C)C)C(=O)N[C@@H](CCCCN)C(=O)O [GLKKLLGKLLKKLGKLLLK], which MIC (Escherichia coli K-12) is on record?
Answer: 10 µM (≈ 21 µg/mL)

Question: What about the MIC [1] of the same compound?
Answer: ≥ 160 µM

Question: CC[C@H](C)[C@H](NC(=O)[C@H](CCCCN)NC(=O)[C@@H](NC(=O)[C@H](CO)NC(=O)[C@H](CC(N)=O)NC(=O)[C@H](Cc1c[nH]c2ccccc12)NC(=O)[C@H](CC(C)C)NC(=O)CN)[C@@H](C)CC)C(=O)N[C@@H](C)C(=O)NCC(=O)N[C@@H](CCCCN)C(=O)N[C@@H](CC(N)=O)C(=O)N[C@@H](CC(C)C)C(=O)N[C@@H](Cc1ccccc1)C(=O)N[C@H](C(=O)N[C@@H](CC(N)=O)C(=O)N[C@H](C(=O)N[C@@H](CC(C)C)C(=O)N[C@@H](CC(=O)O)C(=O)N[C@@H](CCCCN)C(=O)N[C@H](C(=O)N[C@@H](CCCN=C(N)N)C(=O)N[C@H]1CSSC[C@@H](C(=O)O)NC(=O)CNC(=O)CNC(=O)[C@H](C)NC(=O)[C@H](C(C)C)NC(=O)[C@H](CCCCN)NC1=O)[C@@H](C)CC)C(C)C)C(C)C [GLWNSIKIAGKNLFVNVLDKIRCKVAGGC] was tested. Which MIC [3] did it give?
Answer: 3.1 µM (≈ 9.66 µg/mL)

Question: And the MIC [4]?
Answer: ≥ 100 µM

Question: And the MIC [5]?
Answer: 12.5 µM (≈ 38.9 µg/mL)

Question: What about the MIC [6] of the same compound?
Answer: 12.5 µM (≈ 38.9 µg/mL)

Question: With CC[C@H](C)[C@H](N)C(=O)N[C@@H](CC(C)C)C(=O)N[C@H](C(=O)N[C@@H](CC(C)C)C(=O)N[C@H](C(=O)N[C@@H](CCCCN)C(=O)N[C@@H](CCCN=C(N)N)C(=O)N[C@@H](CCCCN)C(=O)O)[C@@H](C)CC)[C@@H](C)CC [ILILIKRK] as the compound, how does the MIC (Staphylococcus xylosus) read?
Answer: ≥ 64 µM

Question: What about the MIC [7] of the same compound?
Answer: ≥ 64 µM

Question: Which MIC [8] does the source give for CC[C@H](C)[C@H](N)C(=O)N[C@@H](CC(C)C)C(=O)N1CCC[C@H]1C(=O)N[C@@H](Cc1c[nH]c2ccccc12)C(=O)N[C@@H](CCCCN)C(=O)N[C@@H](Cc1c[nH]c2ccccc12)C(=O)N1CCC[C@H]1C(=O)N[C@@H](Cc1c[nH]c2ccccc12)C(=O)N[C@@H](Cc1c[nH]c2ccccc12)C(=O)N1CCC[C@H]1C(=O)N[C@@H](Cc1c[nH]c2ccccc12)C(=O)N[C@@H](C)C(=O)N[C@@H](CCCN=C(N)N)C(N)=O [ILPWKWPWWPWAR] here?
Answer: 0.4 µM (≈ 0.728 µg/mL)

Question: Which MIC (Staphylococcus xylosus) does the source give for CC[C@H](C)[C@H](NC(=O)[C@H](CC(C)C)NC(=O)[C@@H](NC(=O)[C@H](CC(C)C)NC(=O)[C@@H](NC(=O)[C@@H](N)CCCCN)[C@@H](C)CC)[C@@H](C)CC)C(=O)N[C@@H](CCCCN)C(=O)N[C@@H](CCCN=C(N)N)C(=O)N[C@@H](CCCCN)C(=O)O [KILILIKRK] here?
Answer: 16 µM (≈ 18 µg/mL)

Question: And the MIC [7]?
Answer: ≥ 32 µM

Question: Which MIC (Staphylococcus xylosus) does the source give for CC[C@H](C)[C@H](NC(=O)[C@H](CC(C)C)NC(=O)[C@@H](NC(=O)[C@H](CC(C)C)NC(=O)[C@@H](NC(=O)[C@H](CCCCN)NC(=O)[C@H](CCCN=C(N)N)NC(=O)[C@@H](N)CCCCN)[C@@H](C)CC)[C@@H](C)CC)C(=O)N[C@@H](CCCCN)C(=O)N[C@@H](CCCN=C(N)N)C(=O)N[C@@H](CCCCN)C(=O)O [KRKILILIKRK] here?
Answer: 2 µM (≈ 2.82 µg/mL)

Question: And the MIC [7]?
Answer: 8 µM (≈ 11.3 µg/mL)

Question: For CC[C@H](C)[C@H](NC(=O)[C@H](CCCCN)NC(=O)[C@H](CC(N)=O)NC(=O)[C@H](CCCN=C(N)N)NC(=O)[C@@H](NC(=O)[C@H](CC(N)=O)NC(=O)[C@H](CCCN=C(N)N)NC(=O)[C@@H](NC(=O)[C@H](CCSC)NC(=O)[C@H](CCCCN)NC(=O)[C@H](CCC(=O)O)NC(=O)[C@@H](NC(=O)[C@H](CCCCN)NC(=O)[C@H](CCCCN)NC(=O)[C@H](Cc1ccccc1)NC(=O)[C@@H](NC(=O)[C@H](CCCCN)NC(=O)[C@H](Cc1c[nH]c2ccccc12)NC(=O)[C@@H](N)CCCCN)C(C)C)[C@@H](C)CC)[C@@H](C)CC)[C@@H](C)CC)C(=O)N[C@@H](C)C(=O)N[C@@H](CCCCN)C(N)=O [KWKVFKKIEKMIRNIRNKIAK], which MIC [3] is on record?
Answer: > 6 µM

Question: And the MIC [9]?
Answer: > 3 µM

Question: And the MIC (Escherichia coli K-12)?
Answer: 3 µM (≈ 8.01 µg/mL)

Question: With CC[C@H](C)[C@H](NC(=O)[C@H](CC(C)C)NC(=O)[C@@H](NC(=O)[C@H](CCCN=C(N)N)NC(=O)[C@H](CCCCN)NC(=O)[C@H](CCCN=C(N)N)NC(=O)[C@H](CCCCN)NC(=O)[C@H](CC(C)C)NC(=O)[C@@H](NC(=O)[C@H](CC(C)C)NC(=O)[C@H](CCCCN)NC(=O)[C@@H](N)CCCN=C(N)N)[C@@H](C)CC)[C@@H](C)CC)C(=O)N[C@@H](CCCCN)C(=O)N[C@@H](CCCN=C(N)N)C(=O)O [RKLILKRKRILIKR] as the compound, how does the MIC (Staphylococcus xylosus) read?
Answer: 8 µM (≈ 14.7 µg/mL)

Question: What about the MIC [7] of the same compound?
Answer: 16 µM (≈ 29.4 µg/mL)

Question: With CC[C@H](C)[C@@H]1NC(=O)[C@H](C)NC(=O)[C@H](CC(C)C)NC(=O)[C@@H]2CSSC[C@@H](C(=O)N[C@@H](CCCN=C(N)N)C(=O)N[C@@H](CCCN=C(N)N)C(=O)O)NC(=O)[C@H]([C@@H](C)CC)NC(=O)[C@@H]3CSSC[C@H](NC(=O)[C@H](CC(C)C)NC(=O)[C@H](CO)NC(=O)[C@H](Cc4cnc[nH]4)NC(=O)[C@H](CC(N)=O)NC(=O)[C@H](C)NC(=O)[C@H](C)NC(=O)[C@H](Cc4ccccc4)NC(=O)CNC(=O)[C@H](CCCCN)NC(=O)[C@H](C)NC(=O)[C@H](CCC(=O)O)NC(=O)[C@H](Cc4ccccc4)NC(=O)[C@H](CO)NC(=O)[C@H](CC(C)C)NC(=O)[C@H](CC(C)C)NC(=O)[C@H](CC(=O)O)NC(=O)[C@@H](NC(=O)[C@@H](NC(=O)[C@@H](N)C(C)C)[C@@H](C)O)CSSC[C@H](NC(=O)[C@H](CO)NC(=O)CNC(=O)CNC(=O)[C@H](CCCN=C(N)N)NC(=O)[C@H](CCCN=C(N)N)NC(=O)CNC1=O)C(=O)N[C@@H](CCC(=O)O)C(=O)N[C@@H](CCCN=C(N)N)C(=O)NCC(=O)N[C@@H](C(C)C)C(=O)N3)C(=O)N[C@@H](C)C(=O)N[C@@H](C)C(=O)N[C@@H](Cc1cnc[nH]1)C(=O)N2 [VTCDLLSFEAKGFAANHSLCAAHCLAIGRRGGSCERGVCICRR] as the compound, how does the MIC [10] read?
Answer: 0.878 µM

Question: And the MIC (Staphylococcus aureus)?
Answer: 4.39 µM

Question: With NC(=O)[C@H](Cc1c[nH]c2ccccc12)NC(=O)[C@H](CCCN=C(N)N)NC(=O)[C@H](CS)NC(=O)[C@H](Cc1ccccc1)NC(=O)[C@H](CCCN=C(N)N)NC(=O)[C@H](CCCN=C(N)N)NC(=O)[C@H](CCCN=C(N)N)NC(=O)[C@H](CS)NC(=O)[C@H](CCCN=C(N)N)NC(=O)[C@@H](N)Cc1c[nH]c2ccccc12 [WRCRRRFCRW] as the compound, how does the MIC [9] read?
Answer: > 128 µM

Question: And the MIC [11]?
Answer: 8 µM (≈ 12.2 µg/mL)

Question: What about the MIC [12] of the same compound?
Answer: 16 µM (≈ 24.4 µg/mL)

Question: And the MIC [13]?
Answer: 2 µM (≈ 3.05 µg/mL)

Question: And the MIC [14]?
Answer: 4 µM (≈ 6.1 µg/mL)

Question: And the MIC [15]?
Answer: 8 µM (≈ 12.2 µg/mL)

Question: What about the MIC [16] of the same compound?
Answer: 8 µM (≈ 12.2 µg/mL)

Question: What about the MIC [17] of the same compound?
Answer: 2 µM (≈ 3.05 µg/mL)
